Test results from US8932807B2, “High throughput in vitro translation (cell-lysate based) assay for detecting quorum sensing signals” (University of South Carolina, priority 2007, dated 2015).

Assays:
Type in all cases: biochemical, Agrobacterium tumefaciens NTL4 (pCF218)(pCF372)
[1] = molecular target: T1, receptor protein TraR (Agrobacterium tumefaciens, UniProt P33905); experiment: cell-free lysate luminescence assay (Beta-Glo) for detection of AHLs; settings: for detection of the AHL by the cell-free assay: comparison of absorbance and luminescence assays; for minimum concentration of AHL resulting in an induction ratio greater than 3, Luminescence assay: cell-free lysate, Beta-Glo, 30° 2 h + 1 h, means±SD (n=3); for level that can be detected, luminescence assay / minimum detection limit, luminescence assay: summary statement
T1 construct: expressed in transfected cells; host or cells: Agrobacterium tumefaciens NTL4 (pCF218)(pCF372); crude cell-free lysate (supernatant of sonicated cells)
T1 sequence (P33905 whole entry): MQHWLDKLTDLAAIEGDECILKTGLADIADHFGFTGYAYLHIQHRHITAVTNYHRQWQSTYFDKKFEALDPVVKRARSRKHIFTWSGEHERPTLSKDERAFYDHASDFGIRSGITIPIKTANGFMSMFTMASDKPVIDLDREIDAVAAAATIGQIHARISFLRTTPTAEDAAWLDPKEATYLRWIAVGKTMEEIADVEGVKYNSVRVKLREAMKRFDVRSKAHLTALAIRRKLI
Experimental: From step 5) • 6) 50 μl of sample solution containing AHLs was added in 96-well plate. • 7) 50 μl of assay reagent diluted in 20 mM KH2PO4 was added into each well, mix and incubate at 30° for 2 h. • 8) 100 μl of an appropriate luminescent substrate (e.g. β-Glo, Promega) was added into each well, mix and incubate and incubate at 30° C. for 1 h. • 9) luminescence was read by microplate luminometer (e.g. Veritas Turner BioSystems). This experiment is discussed in greater detail below.
(§1) Preparation of cell-free lysate. One liter of the reporter strain was grown in AT minimum glucose media (30° C. with shaking for 18 h) to early exponential-phase and then harvested by centrifugation (12,000×g; 10 min). Cell pellets were collected and resuspended in 5 ml of KH2PO4 buffer (100 mM; pH 7.4), then sonicated for 30 sec. three times and centrifuged (12,000×g) at 4° C. for 30 min to remove particulate cell fragments. The supernatant was collected as the ‘cell-free lysate (CFL)’ reagent, and was stored (−80° C.) until use.
Comparison of absorbance and luminescence assays. To improve the sensitivity of the cell-free approach, a luminescence assay was developed for AHLs. The protocol involved: 1) addition of 50 μl of sample solution containing AHLs into a 96-well plate; 2) addition of 50 μl of cell-free extract, diluted in 20 mM KH2PO4 buffer (pH 7.0) resulting in a protein concentration of 80 μg/ml for each well, and then mixed and incubated at 30° for 2 h; 3) addition of 100 μl of β-Glo® (Promega) into each well, followed by mixing and incubation (30° C. for 1 h); and 4) measurement of luminescence using a Veritus Microplate Luminometer (Turner BioSystems). For control wells, 20 mM KH2PO4 (pH 7.0) buffer was used. To determine the detection limit, a 1:1 serial dilution of each AHL was performed in triplicate using 20 mM KH2PO4 (pH 7.0) buffer. Then, absorbance assays were conducted. Induction of β-galactosidase activity was calculated by dividing the sample absorbance or luminescence with that of controls. An induction ratio greater than 3 was considered active (27).

[2] = molecular target: T1, receptor protein TraR; experiment: cell-free lysate absorbance assay (X-Gal, 635 nm) for detection of AHLs; settings: for minimum concentration of AHL resulting in an induction ratio greater than 3, Absorbance assay: cell-free lysate, X-Gal, absorbance 635 nm, means±SD (n=3)
Experimental: Absorbance Assay • 1) A culture of A. tumefaciens NTL4 (pCF218)(pCF372) was grown in 250 ml of AT minimal glucose media plus streptomycin (50 μg/ml) and tetracycline (5 μg/ml) at 30° C. with shaking for 18 hrs. • 2) The resulting cell culture was centrifuged at 10,000 rpm for 10 min. to collect cell pellets. • 3) The collected cell pellets were sonicated in 8 ml of 0.1 M KH2PO4 (pH 7.0) buffer to produce a homogenate. • 4) The sonicated homogenate was centrifuged at 50,000 rpm for 30 min. and the supernatant solution was collected. • 5) The supernatant solution was stored at −20° C. until the experiment. • 6) 50 μl of a sample solution containing AHLs was added to the wells of a 96-well plate. • 7) 50 μl of the collected supernatant solution from step (5), along with 100 μl of 20 mM KH2PO4, was added and mixed to each sample, and each sample was incubated at 30° for 2 h. • 8) 1 μl of X-Gal (20 mg/ml) was added and mixed into each well, and each sample was incubated at 30° C. for 1 h. • 9) The absorbance of each well was read at 635 nm.
as §1
Confirmation of β-galactosidase expression in vitro cell-free solution. To confirm β-galactosidase expression in cell-free solution, the following simple absorbance assay for AHLs was used. The protocol involved: 1) addition of 50 μl of sample solution containing AHLs into a 96-well plate; 2) addition of 50 μl of cell-free extract and 100 μl of 20 mM KH2PO4 (pH 7.0) into each well, followed by mixing and incubation at 30° C. for 2 h; 3) addition of 1 μl of X-Gal (20 mg/ml) into each well, then mixing and incubation at 30° C. for 1 h; and 4) measurement of absorbance in each well at 635 nm by spectrophotometer (Shimadzu UV-2401 PC UV-VIS, Shimadzu Corp.). To determine the detection limits, 1:1 serial dilutions of each AHL in 20 mM KH2PO4 (pH 7.0) buffer were performed in triplicate. Induction of β-galactosidase activity was calculated by dividing the absorbance of samples by those of controls. An induction ratio greater than 3 was considered active.

[3] = tested on: binding of AHL/TraR complex to β-galactosidase promoter; experiment: inhibition of Reactions 2) and 3) of the cell-free assay by streptomycin; settings: 1 μM C8-AHL, 30 min pre-incubation, absorbance, FIG. 5C
Experimental: Inhibition of Reactions 2) and 3). […] First, 50 μl aliquots of 1 μM C8-AHL solution was added to each tube, followed by addition of cell-free extract. Further, a series of increasing concentrations of streptomycin (i.e. 0, 50, 125, 250, 300 μg) were added to the cell-free extract and incubated for 30 min. prior to the assay (4, 22, 29). Then, β-galactosidase expression was measured by absorbance.

Row | Structure (SMILES) | minimum concentration of AHL resulting in an induction ratio greater than 3, Absorbance assay [2] [nM] | minimum concentration of AHL resulting in an induction ratio greater than 3, Luminescence assay [1] [nM] | level that can be detected, luminescence assay [1] | minimum detection limit, luminescence assay [1] | other results
1 | CCCC(=O)N[C@H]1CCOC1=O [C4-AHL, N-butanoyl-homoserine lactone] |  |  |  |  | detection of the AHL by the cell-free assay [1]: not able to detect
2 | CCCCCC(=O)NC1CCOC1=O (stereo not drawn) [C6-AHL, N-hexanoyl-homoserine lactone] | 335 ± 10 | 30 ± 3 | low μM level |  | 
3 | CCCCCCC(=O)N[C@H]1CCOC1=O [C7-AHL, N-heptanoyl-homoserine lactone] | 245 ± 8 | 25 ± 5 |  | approximately 10 nM | 
4 | CCCCCCCC(=O)NC1CCOC1=O (stereo not drawn) [C8-AHL, N-octanoyl-homoserine lactone] | 225 ± 11 | 20 ± 2 |  | approximately 10 nM | absorbance changes (635 nm) proportional to concentration, up to ([2]; dose-response of β-galactosidase expression, FIG. 6): up to 2 μM
5 | CCCCCCCCCC(=O)N[C@H]1CCOC1=O [C10-AHL, N-decanoyl-homoserine lactone] | 1300 ± 20 | 100 ± 5 | low μM level |  | 
6 | CCCCCCCCCCCC(=O)NC1CCOC1=O (stereo not drawn) [C12-AHL, N-dodecanoyl-homoserine lactone] | 2400 ± 30 | 200 ± 6 | low μM level |  | 
7 | CCCCCCCCCCCCCC(=O)N[C@H]1CCOC1=O [C14-AHL, N-tetradecanoyl-homoserine lactones] |  |  |  |  | detection of the AHL by the cell-free assay [1]: not able to detect
8 | CCCC(=O)CC(=O)N[C@H]1CCOC1=O [oxo-C6-AHL, N-3-oxo-hexanoyl-homoserine lactone] | 180 ± 25 | 17 ± 2 |  | approximately 10 nM | 
9 | CCCCCC(=O)CC(=O)NC1CCOC1=O (stereo not drawn) [oxo-C8-AHL, N-3-oxo-octanoyl-homoserine lactone] | 120 ± 10 | 10 ± 3 |  |  | 
10 | [H]/N=C(/N)N[C@H]1[C@H](O)[C@@H](O)[C@H](O[C@@H]2O[C@@H](C)[C@](O)(C=O)[C@H]2O[C@@H]2O[C@@H](CO)[C@H](O)[C@@H](O)[C@@H]2NC)[C@@H](N/C(N)=N\[H])[C@@H]1O [streptomycin] |  |  |  |  | streptomycin additions that reduced assay activities [3]: above 125 μg/ml
